# Results published in patent EP4678629A1, “IONIZABLE LIPID MOLECULE, PREPARATION METHOD THEREFOR AND USE THEREOF” (Maxirna (Shanghai) Pharmaceutical Co., Ltd., priority 2023, dated 2024).
# How the values were obtained:
# [1] = Encapsulation efficiency of the lipid nanoparticle (eGFP mRNA) by Ribogreen method; format: physicochemical; conditions: LNP encapsulating eGFP mRNA, ionizable lipid/DOPE/cholesterol/DMG-PEG2000 50/10/48.25/1.25 mol%, N/P 12
# Experimental: (§1) The ionizable lipid compound and positive control 1 from Example I were dissolved in ethanol at a molar ratio of 50:10:48.25:1.25 with DOPE, cholesterol, and DMG-PEG2000 (all purchased from A.V.T (Shanghai) Pharmaceutical Co., Ltd.) to prepare an ethanol lipid solution. The enhanced green fluorescent protein (eGFP) mRNA was diluted in 20 mM citrate buffer (pH=6.1) to obtain an mRNA aqueous solution. By using a microfluidic device (Micro&Nano Biologics Co., Ltd., model: INano ™ L) mix ethanol lipid solution and mRNA aqueous solution in a volume ratio of 1:3 to prepare a lipid nanoparticle with a total lipid to mRNA N/P ratio of 12. The medium was replaced by ultrafiltration, ethanol was removed and volumed with DPBS. Finally, the lipid nanoparticle was filtered through a 0.2 µm sterile filter to obtain an LNP preparation encapsulating eGFP mRNA using ionizable lipid/DOPE/cholesterol/DMG-PEG2000 (50/10/48.25/1.25 mol%), with an mRNA content of 0.002 mg/ml-0.5 mg/mL.
# (§2) Using Malvern Zetasizer Nano ZS (Malvern UK), the size and polydispersity index (PDI) of the lipid nanoparticle were determined by dynamic light scattering in 173° backscatter detection mode, and the encapsulation efficiency was measured by Ribogreen method.
# [2] = Size and polydispersity index (PDI) of the lipid nanoparticle by dynamic light scattering; format: physicochemical; conditions: LNP encapsulating eGFP mRNA, ionizable lipid/DOPE/cholesterol/DMG-PEG2000 50/10/48.25/1.25 mol%, N/P 12; for Particle size: in nm (unit assumed)
# Experimental: as §1, §2
# [3] = In vitro transfection of cells with eGFP-mRNA lipid nanoparticle (LNP preparation), fluorescence imaging and flow cytometry; format: cell-based, mouse; conditions: mouse, dc2.4 cells, 200 ng of mRNA per well, after 24 hours; read-out: Cell viability, %
# Source text: (§3) This example used mouse bone marrow-derived dendritic cells DC2.4 (purchased from Millipore) as the validation cell line for a lipid nanoparticle transfection experiment. DC2.4 cells adhered to the wall for growth. All operational steps of cell culture strictly followed the prescribed procedures, using sterile reagents for aseptic operations under a sterile workbench. The main operational steps involved were as follows: • 1) Cell recovery: the preserved cell cryopreservation solution was removed from the -80 °C freezer and immediately placed in a 37 °C water bath for rapid and continuous shaking, allowing it to completely melt within one minute. Fresh culture medium was added to a 15 mL centrifuge tube in advance, and the cell fluid was added to the centrifuge tube in a biosafety cabinet. A centrifuge tube of the same mass was taken, placed symmetrically in the centrifuge, and centrifuged at low speed for 5 minutes at 1200 rpm. After centrifugation, the upper clear liquid was removed, and an appropriate amount of culture medium was slowly added along the tube wall. After the cells were gently blown and dispersed evenly, the cell suspension was drawn and added to the prepared culture bottle. The state and distribution of cells in the early stage of recovery were observed under a microscope. The culture bottle was incubated in a 5% CO2 incubator at 37 °C, and the recovery time was recorded. • 2) Cell passaging: Under a microscope, if the cell density in the field of view reached 80%-90%, cells could be passaged and cultured. Adherent cells required trypsin digestion. In order to avoid residual serum in the culture medium reducing trypsin activity, the original culture medium was removed, and DPBS solution was added to wash once. After suctioning out the DPBS solution, trypsin was added to degrade the protein at the intercellular junction, thereby separating the cells and facilitating further cultivation. The mixture was gently shaken well and placed into the incubator for digestion for 2-3 minutes. After digestion was complete, an appropriate amount of culture medium was immediately added to the original culture dish to terminate digestion. Finally, a pipette was used to carefully blow off the cells and blow them until they were evenly dispersed, and then the cells were inoculated and subcultured in a certain proportion according to experimental requirements.
# (§4) Transfection of DC2.4 cells • 1) DC2.4 cell recovery: the frozen DC2.4 cells were taken out from the -80 °C refrigerator and immediately put into a 37 °C water bath for rapid thawing. After melting, they were added to the preheated culture medium, and centrifuged at 1200 rpm for 5 minutes. The supernatant was discarded, and an appropriate amount of DMEM medium containing 10% FBS was added to resuspend the recovered DC2.4 cells, which were placed in a 37 °C, 5% CO2 incubator for activation culture. • 2) According to experimental requirements, DC2.4 cells were transfected into 24 well plates one day in advance. By counting cells, the number and viability of cells were recorded, and a cell suspension with 2 × 10^5 cells per well were taken. Then, a certain volume of DMEM medium containing 10% FBS was added and mixed evenly, wherein 1 mL was added per well for subsequent transfection experiments. • 3) After 24 hours, the culture medium was gently aspirated with a pipette 30 minutes in advance, and each well was washed with 1 mL of DPBS and aspirated. […] The mixture was placed in a 37 °C, 5% CO2 incubator for activation cultivation. • 6) After 24 hours, cell viability (%), eGFP positivity rate (%), and mean fluorescence intensity data were obtained through cell fluorescence imaging and flow cytometry.
# [4] = tested on: DC2.4 cells; test: as above; format: cell-based, mouse; conditions: eGFP positivity rate, DC2.4 cells, 200 ng of mRNA per well, after 24 hours
# Source text: as §3, §4
SMILES,"Encapsulation rate, % [1] [%]",PDI [2],Particle size [2],viability at 24 h [3] [%],"Positive rate, % [4] [%]"
"CCCCC/C=C\C/C=C\CCCCCCCCOC(=O)CCCCCCCN(CCO)CCCN(CCCCCCCC(=O)OCCCCCCCC/C=C\C/C=C\CCCCC)CCCCCCCC(=O)OCCCCCCCC/C=C\C/C=C\CCCCC [Example 24, Di((9Z,12Z)-octadeca-9,12-dien-1-yl)8,8'-((3-((2-hydroxyethyl)(8-(((9Z,12Z)-octadeca-9,12-dien-1-yl)oxo)-8-oxooctyl)amino)propyl)azanediyl)dioctanoate]",97.73,0.15,,76,92.27
"CCCCCC/C=C\COC(=O)CCCCCN(CCO)CCCN(CCCCCC(=O)OC/C=C\CCCCCC)CCCCCC(=O)OC/C=C\CCCCCC [Example 25, Di((Z)-non-2-en-1-yl)6,6'-((3-((2-hydroxyethyl)(6-(((Z)-non-2-en-1-yl)oxo)-6-oxohexyl)amino)propyl)azanediyl)dihexanoate]",98.27,0.17,,76.6,94.29
"CCCCCCCCCCCCCOC(=O)CCCCCN(CCO)CCCN(CCCCCC(=O)OCCCCCCCCCCCCC)CCCCCC(=O)OCCCCCCCCCCCCC [Example 26, Ditridecyl 6,6'-((3-((2-hydroxyethyl)(6-oxo-6-(tridecyloxy)hexyl)amino)propyl)azanediyl)dihexanoate]",99.66,0.09,95.80,98.1,95.84
"CCCCCCCCCCCOC(=O)CCCCCN(CCCO)CCCN(CCCCCC(=O)OCCCCCCCCCCC)CCCCCC(=O)OCCCCCCCCCCC [Example 27, Diundecyl 6,6'-((3-((3-hydroxypropyl)(6-oxo-6-(undecyloxy)hexyl)amino)propyl)azanediyl)dihexanoate]",99.65,0.12,88.43,98.2,97.36
"CCCCCCCCCCCOC(=O)CCCCCN(CCCCO)CCCN(CCCCCC(=O)OCCCCCCCCCCC)CCCCCC(=O)OCCCCCCCCCCC [Example 28, Diundecyl 6,6'-((3-((4-hydroxybutyl)(6-oxo-6-(undecyloxy)hexyl)amino)propyl)azanediyl)dihexanoate]",99.47,0.17,,92.9,97.51
CCCCCCCCCCCCCOC(=O)CCCCCCCN(CCCO)CCCN(CCCCCCCC(=O)OCCCCCCCCCCCCC)CCCCCCCC(=O)OCCCCCCCCCCCCC [Example 29],99.55,0.16,,96.7,95.33
"CCCCCCCCCCCCCOC(=O)CCCCCN(CCCO)CCCN(CCCCCC(=O)OCCCCCCCCCCCCC)CCCCCC(=O)OCCCCCCCCCCCCC [Example 30, 6,6'-((3-((3-hydroxypropyl)(6-oxo-6-(tridecyloxy)hexyl)amino)propyl)azadiyl)ditridecyl dihexanoate]",99.66,0.09,,96.9,96.41
"CCCCCCCCCCCCCOC(=O)CCCCCN(CCCCO)CCCN(CCCCCC(=O)OCCCCCCCCCCCCC)CCCCCC(=O)OCCCCCCCCCCCCC [Example 31, 6,6'-((3-((4-hydroxybutyl)(6-oxo-6-(tridecyloxy)hexyl)amino)propyl)azadiyl)ditridecyl dihexanoate]",99.36,0.15,84.05,94.4,97.43
CCCCCCCCCCCOC(=O)CCCCCCN(CCO)CCCN(CCCCCCC(=O)OCCCCCCCCCCC)CCCCCCC(=O)OCCCCCCCCCCC [Example 32],99.30,0.13,83.34,96.6,95.28
CCCCCCCCCCCCCOC(=O)CCCCCCN(CCO)CCCN(CCCCCCC(=O)OCCCCCCCCCCCCC)CCCCCCC(=O)OCCCCCCCCCCCCC [Example 33],98.96,0.13,,96.4,95.18
CCCCCCCCCCCCCOC(=O)CCCCCCN(CCCO)CCCN(CCCCCCC(=O)OCCCCCCCCCCCCC)CCCCCCC(=O)OCCCCCCCCCCCCC [Example 34],99.39,0.16,82.74,95,93.19

# Further lines, with some results ahead:
"Encapsulation rate, % [1] [%]",PDI [2],Particle size [2],SMILES,viability at 24 h [3] [%],"Positive rate, % [4] [%]"
99.50,0.12,92.18,CCCCCCCCCCCCCOC(=O)CCCCCCN(CCCCO)CCCN(CCCCCCC(=O)OCCCCCCCCCCCCC)CCCCCCC(=O)OCCCCCCCCCCCCC [Example 35],97.2,98.59
99.39,0.16,89.30,CCCCCCCCCCCOC(=O)CCCCCCN(CCCO)CCCN(CCCCCCC(=O)OCCCCCCCCCCC)CCCCCCC(=O)OCCCCCCCCCCC [Example 36],94.2,93.6
99.26,0.15,77.57,CCCCCCCCCCCOC(=O)CCCCCCN(CCCCO)CCCN(CCCCCCC(=O)OCCCCCCCCCCC)CCCCCCC(=O)OCCCCCCCCCCC [Example 37],96.6,89.37
97.58,0.13,89.31,"CCCCCCCCCCCCCOC(=O)CCCCN(CCO)CCCN(CCCCC(=O)OCCCCCCCCCCCCC)CCCCC(=O)OCCCCCCCCCCCCC [Example 39, Ditridecyl 5,5'-((3-((2-hydroxyethyl)(5-oxo-5-(tridecyloxy)pentyl)amino)propyl)azadiyl)dipentanoate]",96.9,91.26
99.29,0.14,63.23,CCCCCCCCCCCCCOC(=O)CCCCN(CCCO)CCCN(CCCCC(=O)OCCCCCCCCCCCCC)CCCCC(=O)OCCCCCCCCCCCCC [Example 40],97.7,99.14
96.67,0.13,71.17,"CCCCCCCCCCCCCOC(=O)CCCCN(CCCCO)CCCN(CCCCC(=O)OCCCCCCCCCCCCC)CCCCC(=O)OCCCCCCCCCCCCC [Example 41, Ditridecyl 5,5'-((3-((4-hydroxybutyl)(5-oxo-5-(tridecyloxy)pentyl)amino)propyl)azadiyl)dipentanoate]",97.2,96.42
